# Measurements from ChEMBL document CHEMBL1137259, “Tubeimoside V (1), a new cyclic bisdesmoside from tubers of Bolbostemma paniculatum, functions by inducing apoptosis in human glioblastoma U87MG cells” (Bioorg Med Chem Lett, 2006).
# Activity calls are given as the source filed them. No cut-off for these calls is given here.
# Tests used:
# U-87 MG [1] = assay: Antiproliferative activity against human U87MG cell line by MTT assay; assay type: functional, cell-based, U-87MG ATCC
# U-87 MG [2] = assay: Cell cycle arrest in U87MG cells by accumulation at G0/G1 phase at 2.6 uM after 12 hrs; assay type: functional, Homo sapiens, U-87MG ATCC
# U-87 MG [3] = assay: Induction of apoptosis measured as chromatin condensation in human U87MG cell line at 7.0 uM after 24 hrs by hoechst 33342 staining; assay type: functional, cell-based; conditions: U-87MG ATCC
# U-87 MG [4] = assay: Induction of apoptosis assessed as phosphatidylserine externalization in human U87MG cell line at 7.0 uM after 24 hrs by annexinV/PI assay; assay type: functional, cell-based; conditions: U-87MG ATCC
# U-87 MG [5] = assay: Induction of apoptosis measured as down regulation of Bcl2 expression in human U87MG cell line by Western blot analysis at 7.0 uM after 6 hrs; assay type: functional, cell-based; conditions: U-87MG ATCC
# U-87 MG [6] = assay: Induction of apoptosis measured as up regulation of Bax expression in human U87MG cell line by Western blot analysis at 7.0 uM after 6 hrs; assay type: functional, cell-based; conditions: U-87MG ATCC
# U-87 MG [7] = assay: Induction of apoptosis measured as down regulation of Bcl2 expression in human U87MG cell line by Western blot analysis at 7.0 uM after 24 hrs; assay type: functional, cell-based; conditions: U-87MG ATCC
# U-87 MG [8] = assay: Induction of apoptosis measured as up regulation of Bax expression in human U87MG cell line by Western blot analysis at 7.0 uM after 24 hrs; assay type: functional, cell-based; conditions: U-87MG ATCC
# U-87 MG [9] = assay: Cell cycle arrest in U87MG cells by accumulation at S phase at 2.6 uM after 12 hrs; assay type: functional, Homo sapiens, U-87MG ATCC
# U-87 MG [10] = assay: Cell cycle arrest in U87MG cells by accumulation at G2/M phase at 2.6 uM after 12 hrs; assay type: functional, Homo sapiens, U-87MG ATCC
# U-87 MG [11] = assay: Cell cycle arrest in U87MG cells by accumulation at SubG1 phase at 2.6 uM after 12 hrs; assay type: functional, Homo sapiens, U-87MG ATCC
# U-87 MG [12] = assay: Cell cycle arrest in U87MG cells by accumulation at G0/G1 phase at 3.6 uM after 12 hrs; assay type: functional, Homo sapiens, U-87MG ATCC
# U-87 MG [13] = assay: Cell cycle arrest in U87MG cells by accumulation at S phase at 3.6 uM after 12 hrs; assay type: functional, Homo sapiens, U-87MG ATCC
# U-87 MG [14] = assay: Cell cycle arrest in U87MG cells by accumulation at G2/M phase at 3.6 uM after 12 hrs; assay type: functional, Homo sapiens, U-87MG ATCC
# U-87 MG [15] = assay: Cell cycle arrest in U87MG cells by accumulation at SubG1 phase at 3.6 uM after 12 hrs; assay type: functional, Homo sapiens, U-87MG ATCC
# U-87 MG [16] = assay: Cell cycle arrest in U87MG cells by accumulation at G0/G1 phase at 2.6 uM after 24 hrs; assay type: functional, Homo sapiens, U-87MG ATCC
# U-87 MG [17] = assay: Cell cycle arrest in U87MG cells by accumulation at S phase at 2.6 uM after 24 hrs; assay type: functional, Homo sapiens, U-87MG ATCC
# U-87 MG [18] = assay: Cell cycle arrest in U87MG cells by accumulation at G2/M phase at 2.6 uM after 24 hrs; assay type: functional, Homo sapiens, U-87MG ATCC
# U-87 MG [19] = assay: Cell cycle arrest in U87MG cells by accumulation at SubG1 phase at 2.6 uM after 24 hrs; assay type: functional, Homo sapiens, U-87MG ATCC
# U-87 MG [20] = assay: Cell cycle arrest in U87MG cells by accumulation at G0/G1 phase at 3.6 uM after 24 hrs; assay type: functional, Homo sapiens, U-87MG ATCC
# U-87 MG [21] = assay: Cell cycle arrest in U87MG cells by accumulation at S phase at 3.6 uM after 24 hrs; assay type: functional, Homo sapiens, U-87MG ATCC
# U-87 MG [22] = assay: Cell cycle arrest in U87MG cells by accumulation at G2/M phase at 3.6 uM after 24 hrs; assay type: functional, Homo sapiens, U-87MG ATCC
# U-87 MG [23] = assay: Cell cycle arrest in U87MG cells by accumulation at SubG1 phase at 3.6 uM after 24 hrs; assay type: functional, Homo sapiens, U-87MG ATCC
# U-87 MG [24] = assay: Cell cycle arrest in U87MG cells by accumulation at G0/G1 phase at 7.0 uM after 12 hrs; assay type: functional, Homo sapiens, U-87MG ATCC
# U-87 MG [25] = assay: Cell cycle arrest in U87MG cells by accumulation at S phase at 7.0 uM after 12 hrs; assay type: functional, Homo sapiens, U-87MG ATCC
# U-87 MG [26] = assay: Cell cycle arrest in U87MG cells by accumulation at G2/M phase at 7.0 uM after 12 hrs; assay type: functional, Homo sapiens, U-87MG ATCC
# U-87 MG [27] = assay: Cell cycle arrest in U87MG cells by accumulation at SubG1 phase at 7.0 uM after 12 hrs; assay type: functional, Homo sapiens, U-87MG ATCC
# U-87 MG [28] = assay: Cell cycle arrest in U87MG cells by accumulation at G0/G1 phase at 7.0 uM after 24 hrs; assay type: functional, Homo sapiens, U-87MG ATCC
# U-87 MG [29] = assay: Cell cycle arrest in U87MG cells by accumulation at S phase at 7.0 uM after 24 hrs; assay type: functional, Homo sapiens, U-87MG ATCC
# U-87 MG [30] = assay: Cell cycle arrest in U87MG cells by accumulation at G2/M phase at 7.0 uM after 24 hrs; assay type: functional, Homo sapiens, U-87MG ATCC
# U-87 MG [31] = assay: Cell cycle arrest in U87MG cells by accumulation at SubG1 phase at 7.0 uM after 24 hrs; assay type: functional, Homo sapiens, U-87MG ATCC
smiles,measurement,setting,value
C[C@@H]1O[C@H]2O[C@@H]3[C@H](OC[C@@H](O)[C@H]3O)OC(=O)[C@]34CCC(C)(C)CC3C3=CCC5[C@@]6(C)C[C@H](O)[C@H](O[C@@H]7O[C@H](CO)[C@@H](O)[C@H](O)[C@H]7O[C@H]7O[C@@H](COC(=O)C[C@](C)(O)CC(=O)O[C@@H]1[C@@H](O[C@@H]1OC[C@@H](O)[C@H](O)[C@H]1O)[C@H]2O)[C@H](O)[C@@H](O)[C@@H]7O)[C@@](C)(CO)C6CC[C@@]5(C)[C@]3(C)CC4 (stereo partly drawn) [TUBEIMOSIDE V],IC25,U-87 MG [1],2.6 µM
same,IC50,U-87 MG [1],3.6 µM
same,IC75,U-87 MG [1],7 µM
same,Activity,U-87 MG [2],50.1%
same,Activity,U-87 MG [3],Active
same,Activity,U-87 MG [4],Active
same,Activity,U-87 MG [5],Active
same,Activity,U-87 MG [6],Active
same,Activity,U-87 MG [7],Active
same,Activity,U-87 MG [8],Active
same,Activity,U-87 MG [9],27.6%
same,Activity,U-87 MG [10],22.3%
same,Activity,U-87 MG [11],4.1%
same,Activity,U-87 MG [12],51%
same,Activity,U-87 MG [13],31.4%
same,Activity,U-87 MG [14],17.6%
same,Activity,U-87 MG [15],8.9%
same,Activity,U-87 MG [16],51.3%
same,Activity,U-87 MG [17],31%
same,Activity,U-87 MG [18],17.7%
same,Activity,U-87 MG [19],9.1%
same,Activity,U-87 MG [20],53.5%
same,Activity,U-87 MG [21],34.2%
same,Activity,U-87 MG [22],12.3%
same,Activity,U-87 MG [23],20.8%
same,Activity,U-87 MG [24],53.3%
same,Activity,U-87 MG [25],32.6%
same,Activity,U-87 MG [26],14.1%
same,Activity,U-87 MG [27],18.3%
same,Activity,U-87 MG [28],53.3%
same,Activity,U-87 MG [29],37.1%
same,Activity,U-87 MG [30],9.6%
same,Activity,U-87 MG [31],42.3%
